Counter-ions that a name gives are not always drawn.
Key:
serotonin transporter = biological target: T1, serotonin transporter (Rattus norvegicus, UniProt P31652); assay: 3H-paroxetine displacement, affinity for the serotonin transporter; assay type: binding
T1 construct: displace ^3H-paroxetine from male rat frontal cortical membranes; from tissue; host or cells: male rat frontal cortex membranes

[1] = biological target: T2, cloned human 5-HT1A receptors (Homo sapiens, UniProt P08908); assay: 35S-GTPγS binding assay, antagonist activity at 5-HT1A receptors; assay type: biochemical; details: reversal of the effects of the standard agonist 8-OHDPAT; for IC50: read-out: 5-HT1A Function IC50
T2 construct: expressed in transfected cells
T2 sequence (P08908 1-422): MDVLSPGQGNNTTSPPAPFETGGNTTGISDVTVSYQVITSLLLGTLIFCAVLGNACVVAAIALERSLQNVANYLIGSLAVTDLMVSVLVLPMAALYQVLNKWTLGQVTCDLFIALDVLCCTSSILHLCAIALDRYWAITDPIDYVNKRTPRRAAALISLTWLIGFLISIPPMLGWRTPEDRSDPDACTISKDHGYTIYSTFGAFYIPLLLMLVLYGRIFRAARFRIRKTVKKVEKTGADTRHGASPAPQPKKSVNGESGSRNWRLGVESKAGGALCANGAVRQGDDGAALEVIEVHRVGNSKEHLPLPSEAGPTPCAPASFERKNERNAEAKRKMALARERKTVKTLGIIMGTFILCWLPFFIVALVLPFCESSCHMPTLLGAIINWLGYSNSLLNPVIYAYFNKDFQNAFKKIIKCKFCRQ
Protocol: Antagonist activity at 5-HT1A receptors was established by using a ^35S-GTPγS binding assay similar to that used by Lazareno and Birdsall (Br. J. Pharmacol. 109: 1120, 1993), in which the test compound's ability to affect the binding of ^35S-GTPγS to membranes containing cloned human 5-HT1A receptors was determined. Agonists produce an increase in binding whereas antagonists produce no increase but rather reverse the effects of the standard agonist 8-OHDPAT. The test compound's maximum inhibitory effect is represented as the Imax, while its potency is defined by the IC50.

human 5-HT1A receptors = biological target: T3, human 5-HT1A receptors (Homo sapiens, UniProt P08908); assay: [3H] 8-OHDPAT displacement from the 5-HT1A receptor in transfected CHO cells; assay type: binding
T3 construct: expressed in transfected cells; host or cells: CHO cells, stably transfected
T3 sequence (P08908 1-422): T2 sequence (P08908 1-422)
From the text: High affinity for the serotonin 5-HT1A receptor was established by testing the claimed compound's ability to displace [^3H] 8-OHDPAT (dipropylaminotetralin) from the 5-HT1A serotonin receptor following a modification of the procedure of Hall et al., J. Neurochem. 44, 1685 (1985) which utilizes CHO cells stably transfected with human 5-HT1A receptors.

T1 sequence (P31652 whole entry): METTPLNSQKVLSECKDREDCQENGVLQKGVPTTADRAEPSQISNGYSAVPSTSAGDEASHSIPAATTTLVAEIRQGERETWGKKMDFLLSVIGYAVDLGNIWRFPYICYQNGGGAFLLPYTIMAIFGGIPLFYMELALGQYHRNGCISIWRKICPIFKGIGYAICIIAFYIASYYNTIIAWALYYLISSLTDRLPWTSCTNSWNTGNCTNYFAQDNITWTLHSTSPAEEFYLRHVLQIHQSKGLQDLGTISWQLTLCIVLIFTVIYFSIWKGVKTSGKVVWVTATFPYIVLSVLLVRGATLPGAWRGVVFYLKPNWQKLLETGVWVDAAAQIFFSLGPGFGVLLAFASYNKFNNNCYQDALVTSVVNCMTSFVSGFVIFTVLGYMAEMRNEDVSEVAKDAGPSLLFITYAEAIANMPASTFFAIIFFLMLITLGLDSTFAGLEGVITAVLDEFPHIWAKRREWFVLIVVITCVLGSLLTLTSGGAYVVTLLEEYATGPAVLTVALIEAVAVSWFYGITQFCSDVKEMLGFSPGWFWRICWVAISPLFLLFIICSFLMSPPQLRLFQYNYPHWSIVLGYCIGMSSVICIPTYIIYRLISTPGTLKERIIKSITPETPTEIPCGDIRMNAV

| Compound | melting point | Ki (serotonin transporter) | 5-HT1A Function Imax (maximum inhibitory effect) [1] | IC50 [1] | Ki (human 5-HT1A receptors) |
| --- | --- | --- | --- | --- | --- |
| Cc1nc2ccc3c(c2o1)OC(CN1CC=C(c2c[nH]c4c(F)cccc24)CC1)CO3 (stereo not shown) | 208 to 210 °C |  |  |  |  |
| Cc1nc2ccc3c(c2o1)OC(CN1CC=C(c2c[nH]c4cc(F)ccc24)CC1)CO3 (stereo not shown) | 188 to 190 °C |  |  |  |  |
| Cc1nc2ccc3c(c2o1)OC(CN1CC=C(c2c[nH]c4ccc(C#N)cc24)CC1)CO3 (stereo not shown) (as salt: fumarate) (hydrate or solvate) [Example 4, 3-[1-(2-Methyl-7,8-dihydro-1,6,9-trioxa-3-aza-cyclopenta[a]naphthalen-8-ylmethyl)-1,2,3,6-tetrahydro-pyridin-4-yl]-1H-indole-5-carbonitrile] | 119 °C |  |  |  |  |
| C1=C(c2c[nH]c3ccccc23)CCN(CC2COc3ccc4ncoc4c3O2)C1 (stereo not shown) [Example 1, 8-[4-(1H-Indol-3-yl)-3,6-dihydro-2H-pyridin-1-ylmethyl]-7,8-dihydro-1,6,9-trioxa-3-aza-cyclopenta[a]naphthalene] | 223 to 224 °C | 4 nM | 45 | 334 nM | 10.3 nM |
| Cc1nc2ccc3c(c2o1)OC(CN1CC=C(c2c[nH]c4ccc(F)cc24)CC1)CO3 (stereo not shown) [Example 2, 8-[4-(5-Fluoro-1H-indol-3-yl)-3,6-dihydro-2H-pyridin-1-ylmethyl]-2-methyl-7,8-dihydro-1,6,9-trioxa-3-aza-cyclopenta[a]naphthalene] | 95 °C | 2.25 nM | 100 | 180 nM | 5.43 nM |
| Cc1nc2ccc3c(c2o1)OC(CN1CC=C(c2c[nH]c4ccccc24)CC1)CO3 (stereo not shown) [Example 3, 8-[4-(1H-Indol-3-yl)-3,6-dihydro-2H-pyridin-1-ylmethyl]-2-methyl-7,8-dihydro-1,6,9-trioxa-3-aza-cyclopenta[a]naphthalene] | 196 °C | 3.83 nM | 100 | 282 nM | 7.56 nM |
| Cc1nc2ccc3c(c2o1)OC(CN1CC=C(c2c[nH]c4ccc(C#N)cc24)CC1)CO3 (stereo not shown) [Example 4, 3-[1-(2-Methyl-7,8-dihydro-1,6,9-trioxa-3-aza-cyclopenta[a]naphthalen-8-ylmethyl)-1,2,3,6-tetrahydro-pyridin-4-yl]-1H-indole-5-carbonitrile] |  | 1.68 nM | 100 | 115 nM | 9.56 nM |
